Results taken from PMC5838563, “Compounds producing an effective combinatorial regimen for disruption of HIV‐1 latency” (EMBO Molecular Medicine, 2017).

What was measured:
[1] = tested on: latent HIV‐1 provirus in CD4^+ T cells from aviremic HIV‐infected patients; test: Intracellular HIV‐1 mRNA in CD4+ T cells of aviremic patients; format: cell-based
Procedure: However, 1 nM PEP005 in combination with 1 μM PH02 produced a significant response that was double that produced by 1 μM PH02 on its own (Fig 10A). We confirmed this effect using a quantitative viral outgrowth assay (qVOA) with pools of CD4^+ T cells isolated from HIV‐1‐infected patient samples (Fig EV5, Appendix Table S5). […] We conclude that this combination of treatments may represent a promising candidate therapy to target persistent latent viral infection.
Figure 10 Effect of PH02 and PEP005 on expression of HIV provirus in latently infected cells from patients • Expression of intracellular HIV‐1 mRNA was determined from pools of CD4^+ T cells from aviremic HIV‐infected patients (n = 3, Appendix Table S4) following 24‐h treatment as indicated. Results are shown as fold induction relative to untreated controls. • Quantitative viral outgrowth assays (qVOA) were used to measure reactivation of HIV‐1 provirus from latency in pools of cells from patients. […] Data information: Statistical significance was determined by one‐way ANOVA and indicated as: *P < 0.05; **P < 0.005; ***P < 0.0005; ****P < 0.00005. […]
HIV‐1 RNA was measured from 1 × 10^6 resting CD4^+ T lymphocytes treated with 30 μM of each compound. […] RNA copy number was calculated using a standard curve generated from titrated infections with RGH‐PGK virus (Dahabieh et al, 2013). […]

[2] = tested on: CD69 expression on PBMCs; test: CD69 expression by flow cytometry on PBMCs from healthy donors; format: cell-based, human
From the text: As discussed earlier, an ideal combination of latency‐reversing compounds would reverse HIV‐1 latency in a broad spectrum of infected cells, without causing global T‐cell activation. Accordingly, we examined the effects of PH02 and PEP005 on T‐cell activation and toxicity on primary cells (PBMCs) isolated from healthy donors. […] Consequently, we examined the effect of lower concentrations of PEP005, alone and in combination with PH02 on these primary cells. […] Based on these observations, we expected that 1 nM PEP005 in combination with PH02 should produce negligible toxicity, and have minimal effects on T‐cell activation, while being capable of causing significant reversal of HIV latency (Fig 4F, Appendix Fig S2B).
Figure 9 Effect of PH02 in combination with PEP005 on T‐cell activation Expression of CD69 on PBMCs from three healthy donors (A, B, C; n = 3) was measured by flow cytometry following 24‐h treatment with 3 μM of PH02 alone or in combination with the indicated concentration of PEP005. Positive control samples were treated with PMA. Statistical significance, as determined by one‐way ANOVA, is indicated: *P < 0.05; **P < 0.005; ***P < 0.0005; ****P < 0.00005; ns, no significant difference. The exact P‐values are indicated in Appendix Table S1.
Luciferase assays were performed in 96‐well plate format, where 100 μl of cell culture containing 1 × 10^5 luciferase reporter cells was plated per well. After the indicated time of treatment, 100 μl of luciferase assay reagent (SuperlightTM luciferase reporter Gene Assay Kit; BioAssay Systems) was added per well, and incubated for 2 min at RT, when luciferase activity was measured on a VictorTM X3 Multilabel Plate Reader. Results were presented relative to the positive control samples treated with 50 nM PMA. T‐cell activation was measured using 1 × 10^5 wild‐type Jurkat^Tat cells or PBMCs purified from healthy donors, treated as indicated. After 24 h, cells were incubated with 2.4G2 antibody to block nonspecific binding and further stained with 5 μl of anti‐human CD69 or an IgG1 isotype control antibody conjugated with PE‐Cy^Tm7. After 30‐min incubation on ice, the cells were washed twice with PBS and analyzed using a Becton Dickinson LSRII flow cytometer (BD Biosciences) to determine mean fluorescence intensity (MFI), using FlowJo software. The mean fluorescence intensity (MFI) obtained from cells stained with IgG isotype antibody control was subtracted from that from cells stained with CD69 to compensate for background (MFICD69‐MFIIgG). IL‐2 production was measured in cell culture supernatants using a human IL‐2 ELISA System (eBioscience). […]

[3] = 3 μM PH02 or 1 nM PEP005 alone, 24 h

C/C=C(/C)C(=O)O[C@H]1C(C)=C[C@]23C(=O)[C@@H](C=C(CO)[C@@H](O)[C@]12O)[C@H]1[C@@H](C[C@H]3C)C1(C)C [PEP005, ingenol‐3‐angelate, reference compound]
induction of viral RNA ([1]; 1 nM PEP005 alone, 24 h): did not cause induction of viral RNA
CD69 induction [2, 3]: did not cause significant CD69 induction
PEP005 concentration causing CD69 expression at levels similar to PMA ([2]; alone and in combination with 3 μM PH02, 24 h): higher than 1 nM

CC(=O)Oc1ccccc1N(C=C1Sc2ccccc2C1=O)C(C)=O [PH02, 2‐{acetyl[(3‐oxo‐1‐benzothien‐2(3H)‐ylidene)methyl]amino}phenyl acetate]
response of combination relative to 1 μM PH02 on its own ([1]; 1 μM PH02 + 1 nM PEP005, 24 h): double
CD69 induction ([2]; 3 μM PH02 + 1 nM PEP005, 24 h): did not cause significant CD69 induction
CD69 induction [2, 3]: did not cause significant CD69 induction
